Data as given in article PMC4287394 (Clinical cancer research : an official journal of the …, 2014).
Values joined by “and” are separate entries in the source; they are usually repeats but may differ in a detail not shown here. Equal values may be shown once.

Experiment: Phase I safety: adverse events, DLT, MTD, RP2D
Assay type: in vivo, human
Details: for Patients with DLT (grade 3 maculopapular rash): 21/28 schedule
[1] = 330mg 21/28, 7 patients, grade ≥3
[2] = 330mg 28/28, 10 patients, all grades
[3] = 330mg 28/28, 10 patients, grade ≥3
[4] = 330mg once-daily 28/28, 10 patients
[5] = 340mg 28/28, 7 patients, all grades
[6] = 340mg 28/28, 7 patients, grade ≥3
[7] = 400mg 28/28, 1 patient, all grades
[8] = 450mg 21/28, 3 patients, all grades
[9] = 450mg 21/28, 3 patients, grade ≥3
[10] = all dose levels 21 or 28/28, 60 patients, all grades
[11] = all dose levels 21 or 28/28, 60 patients, grade ≥3

CS(=O)(=O)N1CCN(Cc2cc3nc(-c4cccc5[nH]ncc45)nc(N4CCOCC4)c3s2)CC1 [pictilisib, 2-(1H-indazol-4-yl)-6-(4-methanesulfonyl-piperazin-1-ylmethyl)-4-morpholin-4-yl-t hieno[3,2-d]pyrimidine]
Any treatment-related adverse event, no. of patients [1]: 2
Decreased appetite, no. of patients with treatment-related AE [1]: 0
Diarrhea, no. of patients with treatment-related AE [1]: 0
Dysgeusia, no. of patients with treatment-related AE [1]: 0
Fatigue, no. of patients with treatment-related AE [1]: 0
Nausea, no. of patients with treatment-related AE [1]: 0
Rash (all rash preferred terms), no. of patients with treatment-related AE [1]: 1
Vomiting, no. of patients with treatment-related AE [1]: 0
Xeroderma, no. of patients with treatment-related AE [1]: 0
Any treatment-related adverse event, no. of patients [2]: 10
Decreased appetite, no. of patients with treatment-related AE [2]: 6
Diarrhea, no. of patients with treatment-related AE [2]: 7
Dysgeusia, no. of patients with treatment-related AE [2]: 5
Fatigue, no. of patients with treatment-related AE [2]: 6
Nausea, no. of patients with treatment-related AE [2]: 9
Rash (all rash preferred terms), no. of patients with treatment-related AE [2]: 4
Vomiting, no. of patients with treatment-related AE [2]: 3
Xeroderma, no. of patients with treatment-related AE [2]: 4
Any treatment-related adverse event, no. of patients [3]: 2
Decreased appetite, no. of patients with treatment-related AE [3]: 0
Diarrhea, no. of patients with treatment-related AE [3]: 1
Dysgeusia, no. of patients with treatment-related AE [3]: 0
Fatigue, no. of patients with treatment-related AE [3]: 0
Nausea, no. of patients with treatment-related AE [3]: 0
Rash (all rash preferred terms), no. of patients with treatment-related AE [3]: 2
Vomiting, no. of patients with treatment-related AE [3]: 0
Xeroderma, no. of patients with treatment-related AE [3]: 1
Patients with grade 1 or 2 rash [4]: 2
Patients with grade 3 rash (after the DLT-defining window) [4]: 2
Patients with DLT (grade 3 maculopapular rash) (330mg once-daily, 7 patients): 1 of 7 and 1
Patients with grade 3 pneumonitis (340mg): 1
Any treatment-related adverse event, no. of patients [5]: 6
Decreased appetite, no. of patients with treatment-related AE [5]: 3
Diarrhea, no. of patients with treatment-related AE [5]: 1
Dysgeusia, no. of patients with treatment-related AE [5]: 2
Fatigue, no. of patients with treatment-related AE [5]: 3
Nausea, no. of patients with treatment-related AE [5]: 4
Rash (all rash preferred terms), no. of patients with treatment-related AE [5]: 1
Vomiting, no. of patients with treatment-related AE [5]: 4
Xeroderma, no. of patients with treatment-related AE [5]: 0
Any treatment-related adverse event, no. of patients [6]: 2
Decreased appetite, no. of patients with treatment-related AE [6]: 0
Diarrhea, no. of patients with treatment-related AE [6]: 0
Dysgeusia, no. of patients with treatment-related AE [6]: 0
Fatigue, no. of patients with treatment-related AE [6]: 0
Nausea, no. of patients with treatment-related AE [6]: 0
Rash (all rash preferred terms), no. of patients with treatment-related AE [6]: 0
Vomiting, no. of patients with treatment-related AE [6]: 0
Xeroderma, no. of patients with treatment-related AE [6]: 0
Any treatment-related adverse event, no. of patients [7]: 1
Decreased appetite, no. of patients with treatment-related AE [7]: 0
Diarrhea, no. of patients with treatment-related AE [7]: 0
Dysgeusia, no. of patients with treatment-related AE [7]: 0
Fatigue, no. of patients with treatment-related AE [7]: 1
Nausea, no. of patients with treatment-related AE [7]: 1
Rash (all rash preferred terms), no. of patients with treatment-related AE [7]: 1
Vomiting, no. of patients with treatment-related AE [7]: 0
Xeroderma, no. of patients with treatment-related AE [7]: 0
Any treatment-related adverse event, no. of patients [8]: 3
Decreased appetite, no. of patients with treatment-related AE [8]: 1
Diarrhea, no. of patients with treatment-related AE [8]: 0
Dysgeusia, no. of patients with treatment-related AE [8]: 1
Fatigue, no. of patients with treatment-related AE [8]: 2
Nausea, no. of patients with treatment-related AE [8]: 2
Rash (all rash preferred terms), no. of patients with treatment-related AE [8]: 3
Vomiting, no. of patients with treatment-related AE [8]: 2
Xeroderma, no. of patients with treatment-related AE [8]: 1
Any treatment-related adverse event, no. of patients [9]: 2
Decreased appetite, no. of patients with treatment-related AE [9]: 0
Diarrhea, no. of patients with treatment-related AE [9]: 0
Dysgeusia, no. of patients with treatment-related AE [9]: 0
Fatigue, no. of patients with treatment-related AE [9]: 0
Nausea, no. of patients with treatment-related AE [9]: 0
Rash (all rash preferred terms), no. of patients with treatment-related AE [9]: 2
Vomiting, no. of patients with treatment-related AE [9]: 0
Xeroderma, no. of patients with treatment-related AE [9]: 0
Time of presentation of DLT rash after commencement of daily dosing (450mg once-daily 21/28): approximately 2 weeks
Time to spontaneous resolution of DLT rash after treatment discontinuation (450mg once-daily 21/28): 2 weeks
Body surface area covered by DLT maculopapular rash (450mg once-daily 21/28, 2 patients): 70-80%
Patients with DLT (grade 3 maculopapular rash) (450mg once-daily, 3 patients): 2 of 3 and 2
DLT on continuous schedule (28/28 schedule (330mg, 340mg, 400mg)): no DLT was observed
Treatment-related deaths (all 60 patients): no treatment-related deaths
Decreased appetite, no. of patients with treatment-related AE [10]: 14
Fatigue, no. of patients with treatment-related AE [10]: 21
Nausea, no. of patients with treatment-related AE [10]: 28
Rash (all rash preferred terms), no. of patients with treatment-related AE [10]: 14
Vomiting, no. of patients with treatment-related AE [10]: 15
Xeroderma, no. of patients with treatment-related AE [10]: 8
Any treatment-related adverse event, no. of patients [11]: 9
Decreased appetite, no. of patients with treatment-related AE [11]: 0
Diarrhea, no. of patients with treatment-related AE [11]: 1
Dysgeusia, no. of patients with treatment-related AE [11]: 0
Fatigue, no. of patients with treatment-related AE [11]: 0
Nausea, no. of patients with treatment-related AE [11]: 0
Rash (all rash preferred terms), no. of patients with treatment-related AE [11]: 5
Vomiting, no. of patients with treatment-related AE [11]: 0
Xeroderma, no. of patients with treatment-related AE [11]: 1
Recommended Phase II dose (RP2D) (continuous once-daily oral dosing): 330 mg
Tolerability (up to 330mg (21/28 schedule)): well-tolerated
Patients with grade ≥3 hyperglycemia (whole study): 1
